# Where two headings read alike, the source gives them in different places.
# Experiments:
# [1] = test system: pathogen of bacterial leaf streak (Xanthomonas oryzaes pv. Oryzicola); format: cell-based; settings: for Inhibition rate of bacterial growth (%): immersed 24 h, growth observed after 3 d
# rice seeds = settings: seed soaking 24 h, tested after 6 d
structure (smiles),measurement,setting,value
"CCCCCCCCCCCC[N+](C)(C)Cc1ccccc1.[Br-] [Dodecyl dimethyl benzyl ammonium bromide, dodecyl dimethyl benzyl ammonium bromide]",inhibitory effect on the pathogen of bacterial leaf streak of rice (in words),[1]; dilutions 1:500 to 1:2000,a certain inhibitory effect
same,Inhibition rate of bacterial growth (%),[1]; multiple for dilution 500,41%
same,Inhibition rate of bacterial growth (%),[1]; multiple for dilution 1000,32%
same,Inhibition rate of bacterial growth (%),[1]; multiple for dilution 1500,30%
same,Inhibition rate of bacterial growth (%),[1]; multiple for dilution 2000,23%
same,Bud length (mm),rice seeds; multiple for dilution 1500,21 mm
same,Germination rate of seed (%),rice seeds; multiple for dilution 1500,55%
same,Root length (mm),rice seeds; multiple for dilution 1500,20 mm
same,Bud length (mm),rice seeds; multiple for dilution 2000,26 mm
same,Germination rate of seed (%),rice seeds; multiple for dilution 2000,56%
same,Root length (mm),rice seeds; multiple for dilution 2000,28 mm

# From patent US20240215587A1 (priority 2020, published 2024)
